Data on 28 compounds can be found in US10221179B2, “Substituted pyrazoloquinazolinones and pyrroloquinazolinones as allosteric modulators of group II metabotropic glutamate receptors” (DOMAIN THERAPEUTICS, priority 2014, dated 2019).

Counter-ions that a name gives are not always drawn.

As to `Cl.Cn1c(=O)c2cc(OCCN3CCOCC3)ccc2n2nc(-c3ccnc(C(F)(F)F)c3)cc12`, the melting point (usually the temperature, or range, at which the solid turns liquid) was above 250 °C.

Turning to `CN1CCN(c2ccc3c(=O)n(C)c4cc(-c5ccnc(C(F)(F)F)c5)nn4c3c2)CC1.Cl`, the melting point is above 250 °C.

As for `Cl.Cn1c(=O)c2ccc(N3CCNCC3)cc2n2nc(-c3ccnc(C(F)(F)F)c3)cc12`, the melting point was above 250 °C.

As for `Cl.Cn1c(=O)c2ccccc2n2nc(-c3ccnc(C4CCCC4)c3)cc12`, the melting point is above 250 °C.

`Cl.Cn1c(=O)c2ccccc2n2nc(-c3ccnc(C4CCCCC4)c3)cc12` registered a melting point above 250 °C.

For `COc1ccc2c(c1)c(=O)n(C)c1cc(-c3ccnc(C4CC4)c3)nn21` (as salt: HCl) [Example 100, 2-(2-Cyclopropyl-pyridin-4-yl)-7-methoxy-4-methyl-4H-pyrazolo[1,5-a]quinazolin-5-one], the melting point is 230 to 240 °C.

Compound `Cn1c(=O)c2ccccc2n2nc(-c3ccncc3)cc12` (as salt: HCl) [Example 104, 4-Methyl-2-pyridin-4-yl-4H-pyrazolo[1,5-a]quinazolin-5-one] had a melting point above 250 °C.

With `Cc1cc(-c2cc3n(C)c(=O)c4ccccc4n3n2)cc(C2CC2)n1` (as salt: HCl) [Example 106, 2-(2-Cyclopropyl-6-methyl-pyridin-4-yl)-4-methyl-4H-pyrazolo[1,5-a]quinazolin-5-one], the melting point was above 250 °C.

As to `Cn1c(=O)c2ccccc2n2nc(-c3ccnc(OC4COC4)c3)cc12` [Example 18, 4-Methyl-2-[2-(oxetan-3-yloxy)-pyridin-4-yl]-4H-pyrazolo[1,5-a]quinazolin-5-one], the melting point fell in the range of 219 to 223 °C.

`COCCOc1cc(-c2cc3n(C)c(=O)c4ccccc4n3n2)ccn1` [Example 20, 2-[2-(2-Methoxy-ethoxy)-pyridin-4-yl]-4-methyl-4H-pyrazolo[1,5-a]quinazolin-5-one] registered a melting point of 169 to 173 °C.

Consider `O=c1c2ccccc2n2nc(-c3ccnc(C(F)(F)F)c3)cc2n1CC(F)F` [Example 29, 4-(2,2-Difluoro-ethyl)-2-(2-trifluoromethyl-pyridin-4-yl)-4H-pyrazolo[1,5-a]quinazolin-5-one], for which the melting point lay in the range of 223 to 230 °C.

Consider `COCCn1c(=O)c2ccccc2n2nc(-c3ccnc(C(F)(F)F)c3)cc12` [Example 30, 4-(2-Methoxy-ethyl)-2-(2-trifluoromethyl-pyridin-4-yl)-4H-pyrazolo[1,5-a]quinazolin-5-one], for which the melting point lay in the range of 165 to 174 °C.

With `Cn1c(=O)c2cc(C(F)(F)F)ccc2n2nc(-c3ccnc(C(F)(F)F)c3)cc12` [Example 37], the melting point lay within 205 to 210 °C.

In turn, `CC(=O)Nc1ccc2c(c1)c(=O)n(C)c1cc(-c3ccnc(C(F)(F)F)c3)nn21` [Example 42, N-[4-Methyl-5-oxo-2-(2-trifluoromethyl-pyridin-4-yl)-4,5-dihydro-pyrazolo[1,5-a]quinazolin-7-yl]-acetamide] gave a melting point above 250 °C.

In the case of `Cn1c(=O)c2cc(N)ccc2n2nc(-c3ccnc(C(F)(F)F)c3)cc12` [Example 43, 7-Amino-4-methyl-2-(2-trifluoromethyl-pyridin-4-yl)-4H-pyrazolo[1,5-a]quinazolin-5-one], the melting point is 245 to 250 °C.

The compound `Cn1c(=O)c2cc(NC3CCC3)ccc2n2nc(-c3ccnc(C(F)(F)F)c3)cc12` [Example 46, 7-Cyclobutylamino-4-methyl-2-(2-trifluoromethyl-pyridin-4-yl)-4H-pyrazolo[1,5-a]quinazolin-5-one] displayed a melting point of 220 to 225 °C.

Regarding `Cn1c(=O)c2cc(N3CCOCC3)ccc2n2nc(-c3ccnc(C(F)(F)F)c3)cc12` [Example 47, 4-Methyl-7-morpholin-4-yl-2-(2-trifluoromethyl-pyridin-4-yl)-4H-pyrazolo[1,5-a]quinazolin-5-one], the melting point is 149 to 163 °C.

For `COCCOc1ccc2c(c1)c(=O)n(C)c1cc(-c3ccnc(C(F)(F)F)c3)nn21` [Example 50, 7-(2-Methoxy-ethoxy)-4-methyl-2-(2-trifluoromethyl-pyridin-4-yl)-4H-pyrazolo[1,5-a]quinazolin-5-one], the melting point was 182 to 189 °C.

Compound `Cn1c(=O)c2cc(OC(F)(F)F)ccc2n2nc(-c3ccnc(C(F)(F)F)c3)cc12` [Example 52, 4-Methyl-7-trifluoromethoxy-2-(2-trifluoromethyl-pyridin-4-yl)-4H-pyrazolo[1,5-a]quinazolin-5-one] came in with a melting point of 240 to 245 °C.

Take `Cn1c(=O)c2cc(S(C)(=O)=O)ccc2n2nc(-c3ccnc(C(F)(F)F)c3)cc12` [Example 53, 7-Methanesulfonyl-4-methyl-2-(2-trifluoromethyl-pyridin-4-yl)-4H-pyrazolo[1,5-a]quinazolin-5-one]: the melting point is above 250 °C.

For `COc1ccc2c(=O)n(C)c3cc(-c4ccnc(C(F)(F)F)c4)nn3c2c1` [Example 54, 8-Methoxy-4-methyl-2-(2-trifluoromethyl-pyridin-4-yl)-4H-pyrazolo[1,5-a]quinazolin-5-one], the melting point is above 250 °C.

Compound `Cn1c(=O)c2ccc(N3CCOCC3)cc2n2nc(-c3ccnc(C(F)(F)F)c3)cc12` [Example 59, 4-Methyl-8-morpholin-4-yl-2-(2-trifluoromethyl-pyridin-4-yl)-4H-pyrazolo[1,5-a]quinazolin-5-one] returned a melting point above 250 °C.

As for `Cn1c(=O)c2ccc(N3CCCC3)cc2n2nc(-c3ccnc(C(F)(F)F)c3)cc12` [Example 60, 4-Methyl-8-pyrrolidin-1-yl-2-(2-trifluoromethyl-pyridin-4-yl)-4H-pyrazolo[1,5-a]quinazolin-5-one], the melting point was above 250 °C.

With `COC1CCN(c2ccc3c(=O)n(C)c4cc(-c5ccnc(C(F)(F)F)c5)nn4c3c2)CC1` [Example 62, 8-(4-Methoxy-piperidin-1-yl)-4-methyl-2-(2-trifluoromethyl-pyridin-4-yl)-4H-pyrazolo[1,5-a]quinazolin-5-one], the melting point was above 250 °C.

For the compound `Cn1c(=O)c2ccc(N3CCC(CO)CC3)cc2n2nc(-c3ccnc(C(F)(F)F)c3)cc12` [Example 67, 8-(4-Hydroxymethyl-piperidin-1-yl)-4-methyl-2-(2-trifluoromethyl-pyridin-4-yl)-4H-pyrazolo[1,5-a]quinazoin-5-one], the melting point lay in the range of 205 to 210 °C.

`Cn1c(=O)c2ccc(N3CC(CO)C3)cc2n2nc(-c3ccnc(C(F)(F)F)c3)cc12` [Example 69, 8-(3-Hydroxymethyl-azetidin-1-yl)-4-methyl-2-(2-trifluoromethyl-pyridin-4-yl)-4H-pyrazolo[1,5-a]quinazolin-5-one]: the melting point was above 250 °C.

As for `Cn1c(=O)c2ccc(N3CCC(C)(O)CC3)cc2n2nc(-c3ccnc(C(F)(F)F)c3)cc12` [Example 71, 8-(4-Hydroxy-4-methyl-piperidin-1-yl)-4-methyl-2-(2-trifluoromethyl-pyridin-4-yl)-4H-pyrazolo[1,5-a]quinazolin-5-one], the melting point is above 250 °C.

Take `Cc1ccc2c(=O)n(C)c3cc(-c4ccnc(C(F)(F)F)c4)nn3c2c1` [Example 72, 4,8-Dimethyl-2-(2-trifluoromethyl-pyridin-4-yl)-4H-pyrazolo[1,5-a]quinazolin-5-one]: the melting point was above 250 °C.
